Patent US20230233569A1 (Revolution Medicines, Inc., priority 2020, published 2023)

What was measured:
[1] = target: NRAS Q61K (Homo sapiens, UniProt P01111+P62937, Q61K); experiment: Disruption of BRAF RBD interaction with Ras (FRET / MOA assay, with Cyclophilin A); assay type: biochemical; settings: NRAS Q61K; read-out: NRAS Q61K FRET data IC50
In short: (§1)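 IC50 reflects compound-driven Ras:Cyclophilin A ternary complex displacing BRAF RBD, read as lowered TR-FRET ratio relative to DMSO after Eu anti-His (10 nM) and APC anti-GST (50 nM) detection for 1.5 h. Prior incubation 3 h, 25° C, with 12.5 nM GMPPNP-loaded Ras, 50 nM BRAF RBD, 25 μM Cyclophilin A; top compound 30 μM.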

[2] = target: KRAS Q61H (Homo sapiens, UniProt P01116+P62937, Q61H); experiment: as above; assay type: biochemical; settings: KRAS Q61H; read-out: KRAS Q61H FRET data IC50
In short: as §1

[3] = target: NRAS WT (Homo sapiens, UniProt P01111+P62937); experiment: as above; assay type: biochemical; settings: NRAS WT; read-out: NRAS WT FRET data IC50
In short: as §1

[4] = target: NRAS Q61R (Homo sapiens, UniProt P01111+P62937, Q61R); experiment: as above; assay type: biochemical; settings: NRAS Q61R; read-out: NRAS Q61R FRET data IC50
In short: as §1

[5] = test system: NCI-H358 (K-Ras G12C); experiment: CellTiter-Glo cell viability assay, 5-day treatment; assay type: cell-based; settings: Homo sapiens, NCI-H358, 120 h, 5-day treatment; read-out: H358 Cell Viability assay data (K-Ras G12C, IC50)
In short: (§2)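 Compounds were dispensed directly onto seeded cells and incubated for 5 days, then plates were equilibrated to room temperature for about 30 minutes before luminescence reading. Signals were expressed as percent of the mean DMSO control and fitted with a four-parameter logistic curve.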

[6] = test system: Capan-1 (K-Ras G12V); experiment: as above; assay type: cell-based; settings: Homo sapiens, CAPAN-1, 120 h, 5-day treatment; read-out: Capan-1 Cell Viability assay data (K-Ras G12V, IC50)
In short: as §2

[7] = target: KRAS G12S (Homo sapiens, UniProt P01116+P62937, G12S); experiment: Disruption of BRAF RBD interaction with Ras (FRET / MOA assay, with Cyclophilin A); assay type: biochemical; settings: read-out: KRAS G12S FRET data, IC50
In short: (§3)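 TR-FRET: nucleotide-loaded K-Ras mutant or WT with Cyclophilin A and BRAF RBD, compound 10-point 3-fold from 30 μM final, 3 h at 25° C, then anti-His Eu (10 nM) and anti-GST APC (50 nM) for 1.5 h. Decreased FRET ratio versus DMSO gives IC50.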

[8] = target: KRAS G13D (Homo sapiens, UniProt P01116+P62937, G13D); experiment: as above; assay type: biochemical; settings: KRAS G13D; read-out: KRAS G13D FRET data IC50
In short: as §3

[9] = target: KRAS WT (Homo sapiens, UniProt P01116+P62937); experiment: as above; assay type: biochemical; settings: KRAS WT; read-out: KRAS WT FRET data IC50
In short: as §3

[10] = target: NRAS G12C (Homo sapiens, UniProt P01111+P62937, G12C); experiment: as above; assay type: biochemical; settings: NRAS G12C; read-out: NRAS G12C FRET data IC50
[11] = target: KRAS G12V (Homo sapiens, UniProt P01116+P62937, G12V); experiment: as above; assay type: biochemical; settings: KRAS G12V; read-out: KRAS G12V FRET data IC50
In short: as §3

[12] = target: KRAS G12C (Homo sapiens, UniProt P01116+P62937, G12C); experiment: as above; assay type: biochemical; settings: read-out: KRAS G12C FRET data, IC50
In short: as §3

[13] = target: KRAS G13C (Homo sapiens, UniProt P01116+P62937, G13C); experiment: as above; assay type: biochemical; settings: read-out: KRAS G13C FRET data, IC50
In short: as §3

[14] = target: KRAS G12D (Homo sapiens, UniProt P01116+P62937, G12D); experiment: as above; assay type: biochemical; settings: read-out: KRAS G12D FRET data, IC50
In short: as §3

KRAS G12D, sequence (P01116 1-169 isoform P01116-2 G12D limits assumed): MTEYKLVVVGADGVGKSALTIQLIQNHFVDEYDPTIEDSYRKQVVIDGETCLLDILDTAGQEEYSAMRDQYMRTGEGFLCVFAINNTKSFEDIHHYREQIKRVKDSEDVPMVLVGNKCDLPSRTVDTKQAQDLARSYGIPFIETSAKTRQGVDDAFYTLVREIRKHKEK
KRAS G12D, sequence (P62937 whole entry): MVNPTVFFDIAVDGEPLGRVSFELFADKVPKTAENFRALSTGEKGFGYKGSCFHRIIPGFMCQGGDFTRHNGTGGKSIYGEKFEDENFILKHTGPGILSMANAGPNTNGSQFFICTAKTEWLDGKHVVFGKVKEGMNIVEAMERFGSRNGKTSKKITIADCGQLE
KRAS WT, sequence (P01116 1-169 isoform P01116-2 limits assumed): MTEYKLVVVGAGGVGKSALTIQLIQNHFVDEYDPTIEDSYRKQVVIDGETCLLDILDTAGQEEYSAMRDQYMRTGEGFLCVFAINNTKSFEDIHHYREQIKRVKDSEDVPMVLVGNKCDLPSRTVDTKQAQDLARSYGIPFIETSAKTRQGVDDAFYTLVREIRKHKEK
KRAS WT, sequence (P62937 whole entry): as the sequence (P62937 whole entry) above
KRAS G12S, sequence (P01116 1-169 isoform P01116-2 G12S limits assumed): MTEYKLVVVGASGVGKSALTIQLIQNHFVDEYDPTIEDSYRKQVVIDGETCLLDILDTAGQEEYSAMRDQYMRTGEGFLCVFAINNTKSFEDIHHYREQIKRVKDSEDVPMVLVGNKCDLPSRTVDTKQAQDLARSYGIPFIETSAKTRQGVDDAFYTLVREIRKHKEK
KRAS G12S, sequence (P62937 whole entry): as the sequence (P62937 whole entry) above
NRAS Q61K, sequence (P01111 whole entry Q61K): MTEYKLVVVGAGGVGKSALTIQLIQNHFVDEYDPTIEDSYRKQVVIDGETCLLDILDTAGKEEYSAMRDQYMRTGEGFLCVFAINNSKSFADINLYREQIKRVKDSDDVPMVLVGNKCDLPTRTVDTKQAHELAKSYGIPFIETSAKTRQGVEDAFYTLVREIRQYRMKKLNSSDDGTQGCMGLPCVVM
NRAS Q61K, sequence (P62937 whole entry): as the sequence (P62937 whole entry) above
NRAS WT, sequence (P01111 whole entry): as the sequence (P01111 whole entry Q61K) above, with K61Q counted along it
NRAS WT, sequence (P62937 whole entry): as the sequence (P62937 whole entry) above
KRAS G13C, sequence (P01116 1-169 isoform P01116-2 G13C): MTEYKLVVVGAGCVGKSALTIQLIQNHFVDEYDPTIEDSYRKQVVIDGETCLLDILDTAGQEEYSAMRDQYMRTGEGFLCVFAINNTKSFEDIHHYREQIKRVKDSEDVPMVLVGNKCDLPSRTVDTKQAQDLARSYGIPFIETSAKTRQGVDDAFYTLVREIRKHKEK
KRAS G13C, sequence (P62937 whole entry): as the sequence (P62937 whole entry) above
KRAS G12V, sequence (P01116 1-169 isoform P01116-2 G12V limits assumed): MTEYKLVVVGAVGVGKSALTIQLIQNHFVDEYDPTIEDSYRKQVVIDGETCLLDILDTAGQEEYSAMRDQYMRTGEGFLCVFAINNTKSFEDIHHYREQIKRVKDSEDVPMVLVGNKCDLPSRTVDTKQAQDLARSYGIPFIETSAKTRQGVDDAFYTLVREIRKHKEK
KRAS G12V, sequence (P62937 whole entry): as the sequence (P62937 whole entry) above
KRAS Q61H, sequence (P01116 1-169 isoform P01116-2 Q61H limits assumed): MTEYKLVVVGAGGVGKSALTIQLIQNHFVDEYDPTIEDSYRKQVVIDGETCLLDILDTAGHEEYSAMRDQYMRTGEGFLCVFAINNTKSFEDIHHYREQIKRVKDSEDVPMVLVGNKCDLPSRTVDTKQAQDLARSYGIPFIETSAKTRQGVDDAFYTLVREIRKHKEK
KRAS Q61H, sequence (P62937 whole entry): as the sequence (P62937 whole entry) above
NRAS G12C, sequence (P01111 whole entry G12C): as the sequence (P01111 whole entry Q61K) above, with G12C, K61Q counted along it
NRAS G12C, sequence (P62937 whole entry): as the sequence (P62937 whole entry) above
KRAS G12C, sequence (P01116 1-169 isoform P01116-2 G12C): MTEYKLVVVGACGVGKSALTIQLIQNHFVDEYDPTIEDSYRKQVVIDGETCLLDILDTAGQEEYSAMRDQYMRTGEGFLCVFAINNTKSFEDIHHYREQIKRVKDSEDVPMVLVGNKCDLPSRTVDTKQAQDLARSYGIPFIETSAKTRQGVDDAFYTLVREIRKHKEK
KRAS G12C, sequence (P62937 whole entry): as the sequence (P62937 whole entry) above
KRAS G13D, sequence (P01116 1-169 isoform P01116-2 G13D limits assumed): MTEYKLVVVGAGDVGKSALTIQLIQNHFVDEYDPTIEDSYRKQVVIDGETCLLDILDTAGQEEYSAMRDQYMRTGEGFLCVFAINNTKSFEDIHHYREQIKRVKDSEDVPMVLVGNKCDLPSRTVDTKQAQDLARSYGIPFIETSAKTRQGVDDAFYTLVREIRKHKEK
KRAS G13D, sequence (P62937 whole entry): as the sequence (P62937 whole entry) above
NRAS Q61R, sequence (P01111 whole entry Q61R): as the sequence (P01111 whole entry Q61K) above, with K61R counted along it
NRAS Q61R, sequence (P62937 whole entry): as the sequence (P62937 whole entry) above

SMILES | IC50 [1] | IC50 [2] | IC50 [3] | IC50 [4] | IC50 [5] | IC50 [6] | IC50 [7] | IC50 [8] | IC50 [9] | IC50 [10] | IC50 [11] | IC50 [12] | IC50 [13] | IC50 [14]
CCn1c(-c2cccnc2[C@H](C)OC)c2c3cc(ccc31)-c1csc(n1)C[C@H](NC(=O)[C@H](C(C)C)N(C)C(=O)N1CC3(CC(N(C)CCO)C3)C1)C(=O)N1CCC[C@H](N1)C(=O)OCC(C)(C)C2 (atropisomer, axis not shown) [Example A467] | 10 to 100 nM | 10 to 100 nM | 100 to 1000 nM | 100 to 1000 nM | 10 to 100 nM | 10 to 100 nM | 100 to 1000 nM | 100 to 1000 nM | 100 to 1000 nM | 10 to 100 nM | 100 to 1000 nM | 10 to 100 nM | 100 to 1000 nM | 100 to 1000 nM
CCn1c(-c2cccnc2[C@H](C)OC)c2c3cc(ccc31)-c1cc(O)cc(c1)C[C@H](NC(=O)[C@H](C(C)C)N(C)C(=O)[C@@H]1CCN[C@@H]1c1ccccc1)C(=O)N1CCC[C@H](N1)C(=O)OCC(C)(C)C2 (atropisomer, axis not shown) [Example A605] | 100 to 1000 nM | < 10 nM | 10 to 100 nM | 100 to 1000 nM | 10 to 100 nM | 100 to 1000 nM | 10 to 100 nM | 10 to 100 nM | 10 to 100 nM | 10 to 100 nM | 10 to 100 nM | 10 to 100 nM | 10 to 100 nM | 10 to 100 nM
CCn1c(-c2cccnc2[C@H](C)OC)c2c3cc(ccc31)-c1csc(n1)C[C@H](NC(=O)[C@H](C(C)C)N(C)C(=O)N1[C@@H](C)CN(C)C[C@@H]1C)C(=O)N1CCC[C@H](N1)C(=O)OCC(C)(C)C2 [Example A609] | 100 to 1000 nM | 100 to 1000 nM | 1000 to 10000 nM | 100 to 1000 nM | 1000 to 10000 nM | 100 to 1000 nM | 1000 to 10000 nM | 1000 to 10000 nM | 1000 to 10000 nM | 100 to 1000 nM | 1000 to 10000 nM | 1000 to 10000 nM | 1000 to 10000 nM | 1000 to 10000 nM
CCn1c(-c2cccnc2[C@H](C)OC)c2c3cc(ccc31)-c1csc(n1)C[C@H](NC(=O)[C@H](C(C)C)N(C)C(=O)N1CCCC13COC3)C(=O)N1CCC[C@H](N1)C(=O)OCC(C)(C)C2 (atropisomer, axis not shown) [Example A528] | 10 to 100 nM | 10 to 100 nM | 10 to 100 nM | 10 to 100 nM | 10 to 100 nM | 10 to 100 nM | 100 to 1000 nM | 100 to 1000 nM | 10 to 100 nM | 10 to 100 nM | 100 to 1000 nM | 10 to 100 nM | 100 to 1000 nM | 100 to 1000 nM
CCn1c(-c2cccnc2[C@H](C)OC)c2c3cc(ccc31)-c1csc(n1)C[C@H](NC(=O)[C@H](C(C)C)N(C)C(=O)N1CC(C)(OC)C1)C(=O)N1CCC[C@H](N1)C(=O)OCC(C)(C)C2 [Example A299] | 100 to 1000 nM | 100 to 1000 nM | 100 to 1000 nM | 100 to 1000 nM | 10 to 100 nM | 100 to 1000 nM | 1000 to 10000 nM | 1000 to 10000 nM | 100 to 1000 nM | 100 to 1000 nM | 1000 to 10000 nM | 100 to 1000 nM | 1000 to 10000 nM | 1000 to 10000 nM
CCn1c(-c2cccnc2[C@H](C)OC)c2c3cc(ccc31)-c1csc(n1)C[C@H](NC(=O)[C@H](C(C)C)N(C)C(=O)N1CCN(C(=O)CN(C)C)CC1)C(=O)N1CCC[C@H](N1)C(=O)OCC(C)(C)C2 (atropisomer, axis not shown) [Example A290] | 10 to 100 nM | 10 to 100 nM | 10 to 100 nM | 100 to 1000 nM | 10 to 100 nM | 10 to 100 nM | 100 to 1000 nM | 100 to 1000 nM | 10 to 100 nM | 10 to 100 nM | 100 to 1000 nM | 10 to 100 nM | 100 to 1000 nM | 100 to 1000 nM
CCn1c(-c2cccnc2[C@H](C)OC)c2c3cc(ccc31)-c1csc(n1)C[C@H](NC(=O)[C@H](C(C)C)N(C)C(=O)N1C[C@H](OC)[C@@H](N)C1)C(=O)N1CCC[C@H](N1)C(=O)OCC(C)(C)C2 (atropisomer, axis not shown) [Example A580] | 10 to 100 nM | 100 to 1000 nM | 100 to 1000 nM | 100 to 1000 nM | 100 to 1000 nM | 100 to 1000 nM | 100 to 1000 nM | 100 to 1000 nM | 100 to 1000 nM | 100 to 1000 nM | 100 to 1000 nM | 100 to 1000 nM | 100 to 1000 nM | 100 to 1000 nM
CCn1c(-c2cccnc2[C@H](C)OC)c2c3cc(ccc31)-c1csc(n1)C[C@H](NC(=O)[C@H](C(C)C)N(C)C(=O)N1CC([C@H](C)CO)C1)C(=O)N1CCC[C@H](N1)C(=O)OCC(C)(C)C2 (atropisomer, axis not shown) [Example A478] | 10 to 100 nM | 10 to 100 nM | 10 to 100 nM | 100 to 1000 nM | < 10 nM | 10 to 100 nM | 100 to 1000 nM | 100 to 1000 nM | 100 to 1000 nM | 10 to 100 nM | 100 to 1000 nM | 10 to 100 nM | 100 to 1000 nM | 100 to 1000 nM
CCn1c(-c2cccnc2[C@H](C)OC)c2c3cc(ccc31)-c1csc(n1)C[C@H](NC(=O)[C@H](C(C)C)N(C)C(=O)N1C3CC1CS(=O)(=O)C3)C(=O)N1CCC[C@H](N1)C(=O)OCC(C)(C)C2 [Example A496] | 100 to 1000 nM | 100 to 1000 nM | 100 to 1000 nM | 1000 to 10000 nM | 100 to 1000 nM | 100 to 1000 nM | 1000 to 10000 nM | 1000 to 10000 nM | 100 to 1000 nM | 100 to 1000 nM | 100 to 1000 nM | 100 to 1000 nM | 1000 to 10000 nM | 1000 to 10000 nM
